# Data: US9889135B2, “Companion diagnostic for CDK4 inhibitors” (Memorial Sloan-Kettering Cancer Center, priority 2013, dated 2018)
# Columns and labels:
# [1] = system: Flag-tagged MDM2 in LS8817 cells; experiment: turnover of FLAG-tagged MDM2 and C464A mutant; format: cell-based, human
# Description: FIG. 21A-B. Turnover of MDM2 is regulated post-translationally. […] Tubulin was used as a loading control. This experiment was repeated twice with similar results. (B) LS8817 cells transduced with either a FLAG-tagged MDM2 or a FLAG-tagged C464A mutant of MDM2 were selected and the turnover of the FLAG-tagged protein measured by immunoblot after protein synthesis was blocked with cycloheximide for the indicated amount of time. A representative immunoblot is shown and the mean and standard deviation was compiled from two independent experiments.
# [2] = system: HAUSP in WD/DDLS cell lines; experiment: HAUSP levels by immunoblot; format: cell-based, human; details: 2 days of treatment
# Protocol: FIG. 25A-D. Turnover of MDM2 is regulated post-translationally. […] Extracts were prepared and MDM2 was immunoprecipitated and the presence of HAUSP and MDM2 in the precipitates were determined by immunoblot. IgG was used as a non-specific antibody control for the immunoprecipitation. […] Tubulin is a loading control. HAUSP levels were reduced with shRNA in the indicated cells lines and the effect on protein expression (C) and the accumulation of senescence-associated (3-galactosidase positive cells measured (D). The mean and standard deviation was compiled from at least two independent experiments with each cell line and a representative immunoblot is shown.
# [3] = system: MDM2 in LS0082, LS141 and LS8817 cells; experiment: MDM2 turnover (cycloheximide chase), responder cells; format: cell-based, human; details: 1 μM for 48 hrs, then cycloheximide
# Protocol: (§1) The level of MDM2 was measured by immunoblot (center). Tubulin was a loading control. […] This experiment was repeated at least three times on different biologic replicates. […] Tubulin is a loading control. Data compiled from at least three independent experiments is plotted (mean and standard deviation) and a representative immunoblot is shown. […] The graphs are compiled from the data obtained in three independent biologic replicates and representative autoradiographs are shown.
# LS6736 cells = experiment: SA-β-gal and HP1γ staining in LS6736; format: cell-based, human; details: LS6736 (MDM2 amplified, CDK4 not); seven days
# Protocol: Cells were plated at a concentration of 25,000 per well in a 4-well chamber slides (Lab-Tek) and treated for seven days with drug or shRNA as described above and stained for senescence-associated β-galactosidase (Cell Signaling kit #9860). Cell number was quantitated by DAPI staining and β-galactosidase staining quantitated as a proportion of total cells. Senescence associated heterochromatic foci were quantitated after cells were fixed with 4% paraformaldehyde, permeabilized with 0.1% Triton, blocked with 2% FBS, and stained with antibodies against HP1γ (1:5000 dilution, 2MOD-1G6 Millipore). Senescent cells were identified by immunofluorescence after treatment of slides with anti-mouse secondary antibodies and quantitation of focal SAHF as a percent of total cells (Leica Upright Confocal SP5 confocal microscope). Actin was marked using phalloidin staining (1:500, Invitrogen) and cells were counterstained with DAPI. Cell area was measured by with Metamorph software to calculate relative area per cell.
# [4] = system: γH2AX and 53BP1 foci in LS8817 cells; experiment: DNA damage foci; format: cell-based, human
# Description: (§2) Extracts from control and irradiated mouse embryo fibroblasts were included as a control. Tubulin is a control. (B) γH2AX and 53BP1 foci were scored in the indicated cell lines. As per (Doll et al., 2009; […] et al., 2012) having a cell with greater than 10 foci (white) is considered positive for DNA damage. As expected for WD/DDLS cell lines the basal level of DNA damage was quite high.
# [5] = system: γH2AX and 53BP1 foci in LS8107 and LS7785-10 cells; experiment: DNA damage foci; format: cell-based, human
# Description: as §2
# [6] = system: p27 in responder and non-responder cells; experiment: p27 levels by immunoblot; format: cell-based, human
# Description: FIG. 22. Additional immunoblot analysis in responder and non-responder cells. […] Actin is a loading control. This experiment was repeated at least three times for each cell line.
# [7] = system: Glioma (U87MG, U251, SNB19, DBTRG-05MG) and breast cancer (MDA453, T47D, ZR-75-1, and MCF7) cells; experiment: SA-β-gal senescence in glioma and breast cancer cell lines; format: cell-based; details: eight cell lines, some p53 and/or INK4 mutant
# Description: FIG. 19A-C. Senescence associated with the downregulation of MDM2 is p53 and INK4 independent. […] This experiment was repeated three times with similar results in both LS8817 and LS141. […] The p53 mutational status of these cell lines (WT, wild type; R273H and L194F, missense mutations; if-DEL, in-frame deletion of 30 nucleotides at amino acid 368) were obtained from the p53 mutation database and the RIKEN bioresource databank and is consistent with the detection of p21 by immunoblot. (C) SNB19 cells, a p53 mutant and INK4A deficient cell, was transduced with the mutants described in panel A and their effect on senescence determined.
# Cells were plated at a concentration of 25,000 per well in a 4-well chamber slides (Lab-Tek) and treated for seven days with drug and stained for senescence-associated β-galactosidase (Cell Signaling kit #9860). Cell number was quantitated by DAPI staining and β-galactosidase staining quantitated as a proportion of total cells.
# [8] = system: cytokine secretion of LS8817 cells; experiment: human cytokine array (SASP); format: cell-based; details: 1 μM, seven days
# Protocol: (§3) FIG. 16. […] Human cytokine arrays were purchased from R&D Technologies (ARY006). […] The media was changed 24 hours prior to harvest. On the day of harvest, the media was collected, spun for 5 minutes at 1200 rpm and filtered through a […] syringe to remove debris. Cells were trypsinized and counted and media volume was adjusted so that an equal number of cells were represented from each sample. Cytokine arrays were performed according to manufacturer's protocol. Signal intensity was measured using ImageJ and a log2 value of the PD/CTRL ratio was calculated.
# [9] = system: cytokine secretion of LS8313 cells; experiment: human cytokine array (SASP); format: cell-based; details: 1 μM, seven days
# Protocol: as §3
# RB-negative cells = details: cited from earlier work
# RB-positive WD/DDLS = details: two patients with RB-positive WD/DDLS; cited from earlier work
# [10] = system: MDM2 in LS7785-1 and LS7785-10 cells; experiment: MDM2 turnover (cycloheximide chase), non-responder cells; format: cell-based, human; details: non-responder cells LS7785-1 and LS7785-10; 1 μM for 48 hrs, then cycloheximide
# Protocol: as §1
smiles,measurement,setting,value
CC(=O)c1c(C)c2cnc(Nc3ccc(N4CCNCC4)cn3)nc2n(C2CCCC2)c1=O [PD0332991],stability of wild type Flag-tagged MDM2,[1],still turned over
same,stability of the C464A mutant of MDM2,[1]; Flag-tagged E3 ligase-deficient mutant,did not affect
same,HAUSP levels,[2],did not change
same,MDM2 stability / protein half-life,[3],markedly reduced
same,number of SA-β-gal and SAHF (HP1γ) positive cells,LS6736 cells,did not increase
same,number of γH2Ax and 5313P1 foci,[4],reduced
same,number of foci,[5],largely unaffected
same,p27 levels,[6],unchanged
same,senescence as measured by accumulation of SA-β-gal,[7],All of the cell lines underwent senescence
same,MIF-1 and PAI-1 secretion,[8],essentially unchanged
same,"secretion of GM-CSF, GROα/CXCL1, IL-6, IL-8 and MCP-1",[8],upregulated
same,SASP cytokine secretion,[9],only IL-6 secretion increased
same,proliferation of RB-negative cells,RB-negative cells,no effect
same,clinical response,RB-positive WD/DDLS,prolonged stable disease lasting several years
same,MDM2 stability,[10],largely unaffected
